Reference: patent publication US20230157952A1, “METHOD FOR IMPROVING THE STABILITY OF A PHARMACEUTICAL COMPOSITION COMPRISING A HIGH PENETRATION DRUG, AND THE PHARMACEUTICAL COMPOSITION OBTAINED THEREFROM” (Techfields Inc., priority 2020, published 2023)

How the values were obtained:
[1] = Effect of temperature (and pH) on the stability of the solution (purity); format: physicochemical; details: 7% solution in water
[2] = Effect of concentration on the stability of the solution (purity over time); details: in water at 25° C.

## CCN(CC)CCOC(=O)C(C)c1ccc2oc(-c3ccc(Cl)cc3)nc2c1.Cl (stereo not shown) [2-(diethylamino)ethyl 2-[(4-chlorophenyl)-5-benzoxazole]propionate•HCl]
[1]
  Stability of the solution at a temperature higher than 40° C. and a pH lower than 3 or greater than 6: not stable
[2]; 0.01 wt %
  Purity at Day 3: 84.7%
  Purity at Day 7: 73.9%
  Purity at Day 14: 62.3%
  Purity at Day 21: 52.9%
  Purity at Day 28: 42.9%
  Purity at hr 0: 97.8%
[2]; 0.1 wt %
  Purity at Day 3: 96.7%
  Purity at Day 7: 95.5%
  Purity at Day 14: 91.1%
  Purity at Day 21: 87.2%
  Purity at Day 28: 83.0%
  Purity at hr 0: 97.9%
[2]; 1 wt %
  Purity at Day 3: 97.0%
  Purity at Day 7: 96.0%
  Purity at Day 14: 94.0%
  Purity at Day 21: 92.3%
  Purity at Day 28: 89.9%
  Purity at hr 0: 98.1%
[2]; 3 wt %
  Purity at Day 3: 97.5%
  Purity at Day 7: 97.0%
  Purity at Day 14: 95.7%
  Purity at Day 21: 94.3%
  Purity at Day 28: 92.8%
  Purity at hr 0: 98.3%
[2]; 5 wt %
  Purity at Day 3: 98.0%
  Purity at Day 7: 97.9%
  Purity at Day 14: 97.6%
  Purity at Day 21: 97.0%
  Purity at Day 28: 96.3%
  Purity at hr 0: 98.5%
[2]; 7 wt %
  Purity at Day 3: 98.4%
  Purity at Day 7: 98.2%
  Purity at Day 14: 98.0%
  Purity at Day 21: 97.8%
  Purity at Day 28: 97.4%
  Purity at hr 0: 98.6%
[2]; 8 wt %
  Purity at Day 3: 98.5%
  Purity at Day 7: 98.3%
  Purity at Day 14: 98.1%
  Purity at Day 21: 97.8%
  Purity at Day 28: 97.4%
  Purity at hr 0: 98.6%
[2]; 10 wt %
  Purity at Day 3: 98.4%
  Purity at Day 7: 98.3%
  Purity at Day 14: 98.2%
  Purity at Day 21: 97.7%
  Purity at Day 28: 97.3%
  Purity at hr 0: 98.5%
[2]; 15 wt %
  Purity at Day 3: 98.5%
  Purity at Day 7: 98.3%
  Purity at Day 14: 98.1%
  Purity at Day 21: 97.7%
  Purity at Day 28: 97.5%
  Purity at hr 0: 98.6%
[2]; 20 wt %
  Purity at Day 3: 98.4%
  Purity at Day 7: 98.3%
  Purity at Day 14: 98.2%
  Purity at Day 21: 97.8%
  Purity at Day 28: 97.4%
  Purity at hr 0: 98.5%
[2]; 30 wt %
  Purity at Day 3: 98.5%
  Purity at Day 7: 98.3%
  Purity at Day 14: 98.0%
  Purity at Day 21: 97.7%
  Purity at Day 28: 97.3%
  Purity at hr 0: 98.6%
[2]; 50 wt %
  Purity at Day 3: 98.5%
  Purity at Day 7: 98.3%
  Purity at Day 14: 98.0%
  Purity at Day 21: 97.9%
  Purity at Day 28: 97.5%
  Purity at hr 0: 98.5%
[2]
  Stability when the concentration is 0.1% or lower: not stable

## CCN(CC)CCOC(=O)CCc1ccc2cc(OC)ccc2c1.Cl [2-(diethylamino)ethyl 3-(6-methoxy-2-naphthyl)propionate•HCl]
[1]
  Stability of the solution at a temperature higher than 40° C. and a pH lower than 3 or greater than 6: not stable
[2]; 0.01 wt %
  Purity at Day 3: 84.7%
  Purity at Day 7: 73.9%
  Purity at Day 14: 62.3%
  Purity at Day 21: 53.9%
  Purity at Day 28: 45.9%
  Purity at hr 0: 97.7%
[2]; 0.1 wt %
  Purity at Day 3: 96.7%
  Purity at Day 7: 95.5%
  Purity at Day 14: 91.1%
  Purity at Day 21: 87.2%
  Purity at Day 28: 83.8%
  Purity at hr 0: 97.9%
[2]; 1 wt %
  Purity at Day 3: 97.0%
  Purity at Day 7: 96.0%
  Purity at Day 14: 94.0%
  Purity at Day 21: 92.3%
  Purity at Day 28: 90.9%
  Purity at hr 0: 98.1%
[2]; 3 wt %
  Purity at Day 3: 97.7%
  Purity at Day 7: 97.0%
  Purity at Day 14: 96.0%
  Purity at Day 21: 94.8%
  Purity at Day 28: 93.8%
  Purity at hr 0: 98.3%
[2]; 5 wt %
  Purity at Day 3: 98.2%
  Purity at Day 7: 98.0%
  Purity at Day 14: 97.6%
  Purity at Day 21: 97.0%
  Purity at Day 28: 96.3%
  Purity at hr 0: 98.4%
[2]; 7 wt %
  Purity at Day 3: 98.4%
  Purity at Day 7: 98.2%
  Purity at Day 14: 98.0%
  Purity at Day 21: 97.8%
  Purity at Day 28: 97.4%
  Purity at hr 0: 98.5%
[2]; 8 wt %
  Purity at Day 3: 98.4%
  Purity at Day 7: 98.3%
  Purity at Day 14: 98.0%
  Purity at Day 21: 97.9%
  Purity at Day 28: 97.5%
  Purity at hr 0: 98.4%
[2]; 10 wt %
  Purity at Day 3: 98.4%
  Purity at Day 7: 98.3%
  Purity at Day 14: 98.2%
  Purity at Day 21: 98.0%
  Purity at Day 28: 97.5%
  Purity at hr 0: 98.5%
[2]; 15 wt %
  Purity at Day 3: 98.4%
  Purity at Day 7: 98.2%
  Purity at Day 14: 98.1%
  Purity at Day 21: 98.0%
  Purity at Day 28: 97.6%
  Purity at hr 0: 98.5%
[2]; 20 wt %
  Purity at Day 3: 98.4%
  Purity at Day 7: 98.2%
  Purity at Day 14: 98.2%
  Purity at Day 21: 98.1%
  Purity at Day 28: 97.5%
  Purity at hr 0: 98.4%
[2]; 30 wt %
  Purity at Day 3: 98.4%
  Purity at Day 7: 98.3%
  Purity at Day 14: 98.1%
  Purity at Day 21: 98.1%
  Purity at Day 28: 97.5%
  Purity at hr 0: 98.5%
[2]; 50 wt %
  Purity at Day 3: 98.5%
  Purity at Day 7: 98.3%
  Purity at Day 14: 98.1%
  Purity at Day 21: 97.8%
  Purity at Day 28: 97.6%
  Purity at hr 0: 98.5%
[2]
  Stability when the concentration is 0.1% or lower: not stable
